Results on seven compounds are retold here after patent publication US6274568A, “Compounds for altering cell surface sialic acids and methods of use therefor” (priority 1999, dated 2001).

Entries after “also recorded” stand apart in the source; their conditions may differ.

The test system of series [1] is NG108-15 cells. As to the kind of experiment: Uptake of mannosamine precursors and conversion to sialic acids (precursor pool, gangliosides, glycoproteins) in NG108-15 cells, HPLC. The series is classed as cell-based, mouse neuroblastoma/rat glioma hybrid. The settings on record: for ganglioside (lipid) sialic acid in the NeuGc form: NG108-15, 20 mM precursor (FIG. 3). On the procedure: (§1) Cells were harvested using hypertonic Ca^2+ - and Mg^2+ -free phosphate-buffered saline containing 1 mM EDTA, collected by centrifugation, and homogenized in ice-cold water using a Potter-Elvehjem glass/Teflon homogenizer. Methanol (2.6 volumes) was added, the suspension mixed and brought to ambient temperature, then chloroform (1.3 volumes, based on the original homogenate) was added and the suspension mixed vigorously. The suspension was centrifuged 30 min at 2,000×g. After collecting the supernatant, the pellet (containing precipitated proteins) was resuspended in water or concentrated ammonium hydroxide and a portion was used for protein assay (BCA, Pierce, Rockford, Ill.). The supernatant was partitioned by adjusting the chloroform-methanol-water ratio to 4:8:5.6 by addition of water, mixing thoroughly, and centrifuging as above. The upper phase was collected and a portion was subjected to reverse phase chromatography, using Sep-Pak C18 cartridges (Waters, Milford, Mass.), to isolate gangliosides (Schnaar, Methods Enzymol. 230:371, 1994).
(§2) To quantify and identify sialic acids, a portion of resolublized protein, organic/aqueous soluble pool, or reverse-phase purified gangliosides was evaporated to dryness in a 500-μl polypropylene tube and 20 μl of 0.1 M HCl/0.25 M NaCl was added. One Ampliwax bead (Perkin Elmer Corp, Foster City, Calif.) per reaction was added to block evaporation, and the sample hydrolyzed for 3 h at 80° C. Released sialic acids were analyzed by injecting an aliquot (1-10 μl) onto a Dionex high pressure liquid chromatography system (Dionex Corporation, Sunnyvale, Calif.) using a HPIC-AS6 column and a pulsed amperometric detector. Elution solutions were: A, 0.75 mM NaOH; B, 200 mM NaOH; and C, 400 mM sodium acetate in 50 mM NaOH. NeuAc and NeuPr were resolved by elution with 40% A, 50% B, 10% C for 15 min at 1 ml/min. NeuGc was resolved in separate injections using step gradient elution: 0-1.8 min, 18% A, 50% B, 32% C; 2-10 min, 40% B, 60% C. Sialic acids were identified by comparison of their elution time with those of standard NeuAc, NeuPr and NeuGc and were quantified in comparison to a standard curve of commercial NeuAc (for NeuAc and NeuPr) or NeuGc.
(§3) To confirm that the quantified peaks represented sialic acids, 10 μl of acid hydrolysates were treated with 1 μl of 1 M sodium phosphate (pH 7.2) and 10 μl of 0.1 M NaOH. Neutralized samples were incubated at 37° C. for 2 h with or without 0.9 U of N-acetylneuraminic acid aldolase (Sigma), 32 μM NADH and 0.1 μg lactate dehydrogenase. Sialic acid content in the ganglioside and glycoprotein fractions is expressed per mg of total cell protein. Precursor pool sialic acid (sialic acid plus CMP-sialic acid) was calculated by subtracting the ganglioside value from the organic/aqueous pool value, both expressed per mg of cell protein.
Sialic acid is biosynthesized from the precursor sugar N-acetylmannosamine (FIG. 2). In the present invention, sialic acids are converted on live neuronal cells from NeuAc, which is a key determinant for MAG binding, to NeuGc, which is non-permissive for MAG binding. A potential NeuGc precursor, N-glycolylmannosamine monoacetate (ManNGcMA, FIG. 1, R1 =H) was tested for its ability to generate altered sialic acids in neuronal and non-neuronal cells. N-propanoylmannosamine (ManNPr) and other N-acyl mannosamine derivatives have been used to modify glycoprotein associated sialic acids to the corresponding N-acylneuraminic acid. N-propanoyl-mannosamine (ManNPr), was used as a positive control. […] Cell pellets were fractioned into lipid associated, protein associated, and intracellular (lipid and cytoplasmic which may consist of oligosaccharide-bound, free, or CMP-activated sialic acid) sialic acids and hydrolyzed to release sialic acid. The hydrolyzed samples were then analyzed by HPLC to determine sialic acid content. […]

A further series deals with Jurkat cells. As to the kind of experiment: Uptake of mannosamine precursors and conversion to sialic acids in Jurkat cells, HPLC. Type of series: cell-based, human. The settings on record: 48 h. On the procedure: as §1, §2, §3
Sialic acid is biosynthesized from the precursor sugar N-acetylmannosamine (FIG. 2). In the present invention, sialic acids are converted on live neuronal cells from NeuAc, which is a key determinant for MAG binding, to NeuGc, which is non-permissive for MAG binding. A potential NeuGc precursor, N-glycolylmannosamine monoacetate (ManNGcMA, FIG. 1, R1 =H) was tested for its ability to generate altered sialic acids in neuronal and non-neuronal cells. N-propanoylmannosamine (ManNPr) and other N-acyl mannosamine derivatives have been used to modify glycoprotein associated sialic acids to the corresponding N-acylneuraminic acid. N-propanoyl-mannosamine (ManNPr), was used as a positive control. Jurkat human lymphoma cells and NG108-15 cells (rodent neuroblastoma/glioma hybrid cells) were incubated in 20 mM synthetic precursor or control precursor (N-acetylmannosamine, ManNAc) for 48 h, then harvested. Cell pellets were fractioned into lipid associated, protein associated, and intracellular (lipid and cytoplasmic which may consist of oligosaccharide-bound, free, or CMP-activated sialic acid) sialic acids and hydrolyzed to release sialic acid. […]

The test system of another series is MAG-Fc chimera. Nature of the series: MAG-Fc binding to precursor-treated NG108-15 cells by flow cytometry. Type of series: cell-based. On the procedure: Flow cytometry was used to test binding of a soluble MAG-Fc chimera to precursor-treated and control NG108-15 cells. A chimeric protein consisting of the entire extracellular domain of MAG fused via a three amino acid bridge (TGK) to the human Fc domain was produced using the "pIgPlus" vector (Novagen, Madison, Wis.). A PCR fragment coding for the extracellular domain of MAG was prepared using MAG in pCDM8 as template (Yang et al., 1996a), the T7 5' primer […] (SEQ ID NO:1) and […] (SEQ ID NO:2) as the 3' primer. The fragment was cut with BamHI and HindIII and directionally cloned into the pIgPlus vector. The resulting construct was sequenced to confirm its identity, transfected into COS cells, and the resulting MAG-Fc chimera was purified from the culture medium using Protein G affinity chromatography.
For MAG binding studies, NG108-15 cells were cultured in the presence of sialic acid precursors for the indicated times, then were released from culture dishes using hypertonic Ca^2+ /Mg^2+ -free phosphate-buffered saline (Yang et al., Proc. Natl. Acad. Sci. USA., 93:814, 1996) and resuspended (at […]) in 25 mM Hepes-buffered Hanks balanced salt solution (Bashor, Methods Enzymol., 58:119, 1979) containing 5 mg/ml bovine serum albumin. MAG-Fc (6 μg) was added to 100 μl of the same buffer containing 6 μg fluorescein isothiocyanate-labeled goat anti-human Fc (Jackson Immunoresearch, West Grove, Pa.) and incubated on ice for 1 h 45 min with frequent mixing. Cell suspension (100 μl containing 50,000 cells) was added to the premixed antibody solution and the mixture incubated on ice for 45 min. The cells were then centrifuged for 4 sec at 16,000×g and washed three times by resuspension in 200 μl of buffer with bovine serum albumin and centrifugation. The resulting cell pellet was resuspended in 100 μl buffer with bovine serum albumin and flow cytometry was performed on an Epics Profile II cytometer (Coulter Corp, Hialeah, Fla.).
NG108-15 cells, a mouse neuroblastoma/rat glioma hybrid, display many qualities of cholinergic neurons, including neurite outgrowth, synthesis, storage and release of acetylcholine, and functional synapse formation with muscle cells in vitro. Neurite outgrowth from NG108-15 cells is inhibited by MAG (McKerracher et al., Neuron, 13:805, 1994), an interaction which is reversed by pretreatment of the cells with neuraminidase (Schnaar et al., Ann. N.Y. Acad. Sci., 845:92, 1998). […] Binding was quantified by flow cytometry. […]
For orientation: Flow cytometry measures light scatter and fluorescence of single cells or particles in a stream.

For series [2], the system named is NG108-15 cells. Nature of the series: Cell growth and viability of precursor-treated NG108-15 cells. Conditions: 1 mM.
Description: Cell growth rates were determined in control cultures (.box-solid.), in cultures treated with 0.08 mM (.circle-solid.), 0.25 mM (.smallcircle.), or 1 mM (.quadrature.) ManNGcPA, and in cultures treated with 0.25 mM (.tangle-solidup.) or 1 mM (Δ) glucose pentaacetate.
NG108-15 cells were maintained in Dulbecco's modified Eagle's medium (high glucose formulation) containing 5% iron-enriched calf serum, 100 μM hypoxanthine, 16 μM thymidine, and 5 μM aminopterin. […] Both cell types were cultured at 37° C. in a humidified atmosphere of 90% air/10% CO2. For treatment with sialic acid precursors, mannosamine derivatives were diluted into the appropriate medium and filter sterilized. […] In experiments testing ManNGcPA, all cells (control and experimental) were grown in the presence of 0.5% (v/v) DMSO, the carrier for ManNGcPA.
In series [3] the test system is myelin-associated glycoprotein (MAG). Conditions: cited from earlier work.
Where [4] appears, read: NG108-15, 20 mM precursor, 48 h.

As for `CC(=O)N[C@@H]1C(O)O[C@H](CO)[C@@H](O)[C@@H]1O` (stereo partly drawn) [ManNAc, N-acetylmannosamine, reference compound], in the series on NG108-15 cells [1] (20 mM precursor, 48 h), the “increase in intracellular sialic acid (precursor pool)” value is given as no more than 14 fold and the “increase in total glycoprotein sialic acid” value is on record as “≈ 2 fold”. In addition, the “levels of intracellular sialic acid” value in the series on NG108-15 cells [1] (setting [4]) is on record as “high levels”. Besides, the “levels of intracellular sialic acid” value with Jurkat cells (20 mM precursor) is recorded as “high levels”.
In the case of `CC(=O)N[C@@H]1C(OC(C)=O)O[C@H](COC(C)=O)[C@@H](OC(C)=O)[C@@H]1OC(C)=O` (stereo partly drawn) [ManNAc-tetraacetate, ManNAc tetra-O-acetate, reference compound], the “effect on MAG-Fc binding” value with MAG-Fc chimera (1 mM, 96 h) was “no significant effect on binding”.
`O=C(CO)N[C@@H]1C(O)O[C@H](CO)[C@@H](O)[C@@H]1O` (stereo partly drawn) [ManNGc, N-glycolylmannosamine]: the “decrease in MAG-mediated recognition” value with MAG-Fc chimera (ng108-15 cells) came to 60%. Besides, in the series with NG108-15 cells [1] (5 mM), the “levels of NeuGc in any of the fractions analyzed” value was “did not result in substantial levels of NeuGc”. Also, the “levels of NeuGc (elevation)” value with NG108-15 cells [1] (5 mM in the presence of DMSO, 48 h) was “did not result in elevated levels of NeuGc”. Moreover, in the series with NG108-15 cells [1] (5 mM, 48 h), the “intracellular sialic acid in the form of NeuGc” value stood at 13.6% and the “protein associated sialic acid as NeuGc” value worked out at 9.5%. The “total lipid associated sialic acid as NeuGc” value in the series on NG108-15 cells [1] (5.0 mM, 48 h) worked out at 5%. Besides, the “ganglioside (lipid) sialic acid in the NeuGc form” value in the series with NG108-15 cells [1] (48 h) is recorded as roughly 70%. Further, in the series on NG108-15 cells [1] (NG108-15 compared with Jurkat, 48 h), the “intracellular NeuGc” value is recorded as “substantially lower levels”. For the same compound, in the series with NG108-15 cells [1] (in MAG recognition experiment), the “glycoconjugate sialic acid in the form of NeuGc” value is on record as 60%. In the series with Jurkat cells, the “intracellular NeuGc” value was “expected rise in intracellular NeuGc”, the “lipid sialic acid in the form of NeuGc” value is on record as “Approximately 50%” and the “protein sialic acid in the form of NeuGc” value is “Approximately 50%”.
`CC(=O)OCC(=O)N[C@@H]1C(O)O[C@H](CO)[C@@H](O)[C@@H]1O` (stereo partly drawn) [ManNGcMA, N-Glycolylmannosamine monoacetate]: in the series on NG108-15 cells [1] (5 mM, 48 h), the “incorporation of NeuGc into gangliosides, relative to 1 mM ManNGcPA” value was “much less” and the “incorporation of NeuGc into glycoproteins, relative to 1 mM ManNGcPA” value is recorded as “much less”. Also, in the series with NG108-15 cells [1] (20 mM precursor, 48 h), the “conversion of glycoprotein sialic acids to the NeuGc form” value was “≈ 30%”, the “decrease in total glycoprotein sialic acid” value is listed as “≈ 40%”, the “sialic acid precursor pool in the NeuGc form” value is reported as “≈ 70%” and the “sialic acid precursor pool size compared to untreated control” value was “markedly smaller sialic acid precursor pool”. In the series with NG108-15 cells [1] (0.1 or 1.0 mM ManNGcPA, or 5 mM ManNGcMA, 48 h), the “sialic acid precursor pool size” value was “none of these treatments significantly altered the sialic acid precursor pool size”. Besides, in the series on NG108-15 cells [1] (48 h), the “ganglioside (lipid) sialic acid in the NeuGc form” value is recorded as “≈ 30%”. Also, the “size of the ganglioside pool” value in the series with NG108-15 cells [1] (setting [4]) is listed as “remained relatively constant”. Also, in the series with Jurkat cells (20 mM precursor), the “sialic acid precursor pool as NeuGc” value is on record as “nearly all NeuGc” and the “total sialic acid precursor pool size” value was “increase in total sialic acid precursor pool size (comparable to treatment with ManNPr)”.
For the compound glucose pentaacetate, in the series on NG108-15 cells [2], the cell growth entry was “more profound decreases in cell growth and viability than the ManNGcPA-treated cells”; the “cell viability (in words)” value was “more profound decreases in cell growth and viability than the ManNGcPA-treated cells”.
For the compound `O=C(CO)N[C@H]1[C@H]([C@H](O)[C@H](O)CO)OC(O)(C(=O)O)C[C@@H]1O` (stereo partly drawn) [NeuGc, N-glycolylneuraminic acid], the “support of MAG binding / recognition” value in series [3] was “but not N-glycolylneuraminic acid (NeuGc) support MAG binding; also recorded: does not support MAG binding”.
Regarding `CC(=O)OC[C@H]1OC(OC(C)=O)[C@@H](NC=O)[C@@H](OC(C)=O)[C@@H]1OC(C)=O` (stereo partly drawn) [ManNFr-OAc, N-formylmannosaminne peracetate], in the series on NG108-15 cells [1] (48 hours), the “glycolipid associated sialic acid as NeuFr” value is 10%. Also, the “levels of intracellular sialic acid in the form of NeuFr” value with NG108-15 cells [1] (FIG. 13) was “elevated levels of intracellular sialic acid in the form of N-formyneuraminic acid”.
